The values below come from US10280179B2, “Spiroquinoxaline derivatives as inhibitors of non-apoptotic regulated cell-death” (Helmholtz Zentrum Munchen—Deutches Forschungszentrum Fur …, priority 2013, dated 2019).

Common to all, as to type: cell-based
One series concerns Pfa1 cells. The series can be described thus: Inhibition of non-apoptotic cell death after tamoxifen-induced GPx4 knockout in a recombinant cell line (Example B.4). Particulars: Mus musculus, read-out: Pfa1/TAM IC50. An excerpt: Inhibition of Non-Apoptotic Cell-Death by Compounds Disclosed Herein Using a Recombinant Cell Line
To combat high intracellular ROS levels, mammalian cells have evolved an intricate network of ROS scavenging in cells, in which the thioredoxin and glutathione (GSH) dependent systems prevail. […] Knockout of GPx4 in neurons causes massive neurodegeneration in cortical, cerebellar and hippocampal neurons underscoring the high relevance of ROS-induced cell death signaling in the brain. Briefly, immortalised fibroblasts from these mice were made to contain tamoxifen-inducible CreERT2, which catalyzes the functional ablation of both copies of GPx4 and resulting in a complete knockout of GPx4, a massive ROS burst, and cell death in cell culture. These cells (Pfa1 cells) were used to characterize compounds of the present invention, whereby tamoxifen (TAM) was given on day 0 along with the compound under test, and 72 hours later cell survival was evaluated using AlamarBlue.

Series [1] can be described thus: Cellular toxicity, same assay as Example B.4 without TAM (Example B.5). Particulars: mouse; Pfa1 cells without TAM; read-out: TC50 (the source's name). An excerpt: Cellular Toxicity of Compounds of the Invention
An estimate of the toxicity for compounds of the invention was obtained by using the same assay as described in Example B.4, but without the addition of TAM. […] Such TC50 values obtained for certain compounds disclosed herein, together with an approximate therapeutic window (estimated by dividing each TC50 by the corresponding IC50 determined from example B.4) are shown in Table 3.

Series [2] relates to mouse hippocampal cell line (Ht22). The series is described as follows: Inhibition of glutamate-induced non-apoptotic cell death (Example B.2). Particulars: HT-22, Ht22 cells, glutamate-induced cell death, read-out: Ht22/GLU. An excerpt:
Inhibition of Glutamate-Induced Non-Apoptotic Cell Death by Compounds of the Present Invention
Glutamate toxicity is conferred on cells from the mouse hippocampal cell line (Ht22) by inhibition of the cysteine/glutamate antiporter, System xc-, leading to impaired cysteine uptake and subsequent GSH depletion. This model is frequently used for mimicking glutathione depletion following oxidative stress in stroke, brain trauma and other neurodegenerative diseases and cellular conditions following ischemia (for example: van Leyen et al, J. Neurochem. 92:824-30 (2005)).
Compounds disclosed herein were evaluated for their ability to promote cell survival upon administration of a lethal dose of glutamate (GLU) to the cell-culture medium.
Briefly, Ht22 cells (ATCC) were propagated DMEM supplemented with 10% FBS/1% Penicillin-Streptomycin, and then seeded onto 96-well plates at a concentration of 2,000 cells/well in 100 μL of MEDIA, simultaneously with glutamate (Sigma Aldrich) to a final concentration of 5 mM, together with increasing concentrations of the compound to be tested (0.5 pM to 100 μM), and the plates incubated at 37° C./5% CO2 for 72 hours. Compound dilutions were prepared from 10 mM stocks dissolved in DMSO and diluted in media. Cells treated with glutamate alone were used as negative control and alpha-tocopherol (Sigma Aldrich) was used as positive control. Compound concentrations were tested in triplicate. After incubation, cell survival was detected and quantified as described in Example B.1.

Where only a bound is given, the exact number is not on record here.

In the case of `Cc1cc2c(cc1C)NC1(CCNCC1)C(NCc1ccc(Cl)c(Cl)c1)=N2` [N-232], the IC50 (in the series with Pfa1 cells; in series [2]) was less than 10 nM each time. The CC50 in series [1] lay within 1000 to 2000 nM.
`c1ccc(CCCNC2=Nc3ccccc3NC23CCSCC3)cc1` [O/S-356]: the IC50 (in the series with Pfa1 cells; in series [2]) was less than 2000 nM in each case. Moreover, the CC50 in series [1] lay within 20000 to 50000 nM.
In the case of `Clc1cccc(CNC2=Nc3cc(Cl)c(Cl)cc3NC23CCCCCC3)c1` [C-234], the IC50 (in the series with Pfa1 cells; in series [2]) was less than 500 nM throughout. Also, in series [1], the CC50 fell in the range of 20000 to 50000 nM.
Regarding `CC(NC1=Nc2ccccc2NC12CCOCC2)c1ccccc1` (centres unmarked) [O/S-348], the IC50 (with Pfa1 cells; in series [2]) was less than 5000 nM each time. Further, the CC50 in series [1] was in the range of 50000 to 100000 nM.
Regarding `CC(NC1=Nc2ccccc2NC12CCNCC2)c1ccccc1` (centres unmarked) [N-218], the IC50 (in the series with Pfa1 cells; in series [2]) was less than 500 nM each time. For the same compound, the CC50 in series [1] lay within 20000 to 50000 nM.
Turning to `Clc1ccc(CNC2=Nc3ccccc3NC23CCNCC3)cc1Cl` [N-211], the figures for the IC50 (in the series with Pfa1 cells; in series [2]) were less than 10 nM and less than 50 nM, respectively. The CC50 in series [1] was in the range of 1000 to 2000 nM.
Taken in the same sequence, the figures for `Fc1cccc(CNC2=Nc3ccccc3NC23CCOCC3)c1` [O/S-5] were less than 2000 nM, less than 5000 nM and 50000 to 100000 nM.
Turning to `CCCCCCCCN1CCC2(CC1)Nc1ccccc1N=C2NCc1ccccc1` [N-234], the IC50 (in the series on Pfa1 cells; in series [2]) was less than 100 nM in each case. Besides, the CC50 in series [1] fell in the range of 5000 to 10000 nM.
For the compound `Fc1cccc(F)c1CNC1=Nc2ccccc2NC12CCOCC2` [O/S-341], the IC50 (with Pfa1 cells; in series [2]) was less than 2000 nM in each case. The CC50 in series [1] was 50000 to 100000 nM.
Regarding `Clc1cc2c(cc1Cl)NC1(CCSCC1)C(NCc1ccccc1)=N2` [O/S-349], the IC50 with Pfa1 cells is less than 200 nM; in series [2], less than 500 nM. For the same compound, the CC50 in series [1] was in the range of 20000 to 50000 nM.
On to `CN1CCC2(CC1)Nc1ccccc1N=C2NCc1cccc(C(F)(F)F)c1` [N-215], for which the IC50 (in the series with Pfa1 cells; in series [2]) was less than 50 nM throughout. The CC50 in series [1] lay in the range of 5000 to 10000 nM.
Turning to `Cc1cc2c(cc1C)NC1(CCNCC1)C(NCc1ccc(Cl)cc1)=N2` [N-214], the results for the IC50 (with Pfa1 cells; in series [2]) were less than 10 nM and less than 50 nM, respectively. The CC50 in series [1] is 1000 to 2000 nM.
On to `Fc1cccc(F)c1CNC1=Nc2cc(Cl)c(Cl)cc2NC12CCCCC2` [C-240], for which the IC50 was less than 500 nM with Pfa1 cells and less than 200 nM in series [2]. Besides, in series [1], the CC50 is 5000 to 10000 nM.
On to `Clc1cc2c(cc1Cl)NC1(CCCNCC1)C(NCc1ccccc1)=N2` (centres unmarked) [N-236], for which the figures for the IC50 (with Pfa1 cells; in series [2]) were less than 100 nM and less than 50 nM, respectively. The CC50 in series [1] lay in the range of 2000 to 5000 nM.
Taken in the same sequence, the figures for `Cc1cccc(CNC2=Nc3cc(C)c(C)cc3NC23CCNCC3)c1` [N-235] were less than 50 nM, less than 50 nM and 1000 to 2000 nM.
The corresponding values for `c1ccc(C(CNC2=Nc3ccccc3NC23CCCCC3)c2ccccc2)cc1` [C-229] are less than 200 nM, less than 1000 nM and 2000 to 5000 nM.
The corresponding values for `c1ccc(CNC2=Nc3ccccc3NC23CCCNCC3)cc1` (centres unmarked) [N-212] are less than 1000 nM, less than 1000 nM and 10000 to 20000 nM.
As to `CC(CCc1ccccc1)NC1=Nc2ccccc2NC12CCNCC2` (centres unmarked) [N-222], the IC50 in the series with Pfa1 cells is less than 200 nM; in series [2], less than 50 nM. Further, the CC50 in series [1] was in the range of 20000 to 50000 nM.
The corresponding values for `COc1cccc(CNC2=Nc3ccccc3NC23CCNCC3)c1` [N-14] are less than 500 nM, less than 200 nM and 20000 to 50000 nM.
`FC(F)(F)c1cccc(CNC2=Nc3ccccc3NC23CCOCC3)c1` [O/S-23]: the IC50 with Pfa1 cells is less than 500 nM; in series [2] it was less than 1000 nM. For the same compound, in series [1], the CC50 was 20000 to 50000 nM.
Take `Clc1ccc(CNC2=Nc3ccccc3NC23CCOCC3)c(Cl)c1` [O/S-354]: the IC50 (with Pfa1 cells; in series [2]) was less than 500 nM in each case. The CC50 in series [1] fell in the range of 20000 to 50000 nM.
`O=S1(=O)CCC2(CC1)Nc1cc(Cl)c(Cl)cc1N=C2NCc1ccccc1` [O/S-360]: the IC50 (with Pfa1 cells; in series [2]) was less than 2000 nM each time.
